Reference: PMC6979384, “Characterization of the plant homeodomain (PHD) reader family for their histone tail interactions” (Epigenetics & Chromatin, 2020)
Where no end group is shown, it is not given here. [ ]: non-standard residue; d: D form. Arg(Me2a) = CN(C)C(=N)NCCC[C@H](N)C(=O)O; pS = N[C@@H](COP(=O)(O)O)C(=O)O

Assays:
Experiment in all cases: Histone peptide microarray
Assay type in all cases: binding, human
CHD5 (PCC) = settings: CHD5 (PCC), GST-tagged; arrays performed twice, n of 4
Text: (§1) To more comprehensively define the histone interactions of the 31 PHD readers identified from the domain microarray analyses, we probed each on an alternate microarray platform containing a library of 293 synthetic histone peptides with single or combinatorial PTMs (Additional file 2: Figure S4 and Additional file 3: Table S2).
(§2) The 31 GST-tagged PHD readers identified in the PHD finger domain array were expressed and purified as previously. Histone peptide arrays and peptide pulldown assays were conducted as recently described (specifically, the optimized protocol from Petell et al. for the former).
(§3) Supplementary file 13072_2020_328_MOESM3_ESM.xlsx: Additional file 3: Table S2. […] Excel Tab Peptide List is a compiled list of the entire 293 histone peptide library with amino acid sequence ranges. […] Each number corresponds to the peptide number designated in Peptide List. Excel Tab Average Signals is a compiled set of binding data: chromatin reader at 0.5 μM vs. entire 293 peptide library. Data is presented as the average and standard deviation of 4 replicates. The average signals are colored to indicate signal intensity with green being strong and white being weak/low. […] Key: red= stronger relative binding; blue = weaker relative binding. Excel Tab Array info summary is a table summarizing the domains, sequence coverage, array signal range, and noise for each of the GST-tagged readers assayed on the peptide microarrays.

DPF2 (PPC2W2) = settings: DPF2 (PPC2W2), GST-tagged; arrays performed twice, n of 4
Text: as §1, §2, §3

BAZ2B = settings: BAZ2B, GST-tagged; arrays performed twice, n of 4
Text: as §1, §2, §3

PHF8 = settings: PHF8, GST-tagged; arrays performed twice, n of 4
Text: as §1, §2, §3

PHRF1 (RP) = settings: PHRF1 (RP), GST-tagged; arrays performed twice, n of 4
Text: as §1, §2, §3

ING3 = settings: ING3, GST-tagged; arrays performed twice, n of 4
Text: as §1, §2, §3

PHF23 = settings: PHF23, GST-tagged; arrays performed twice, n of 4
Text: as §1, §2, §3

PHF21A = settings: PHF21A, GST-tagged; arrays performed twice, n of 4
Text: as §1, §2, §3

PHF2 = settings: PHF2, GST-tagged; arrays performed twice, n of 4
Text: as §1, §2, §3

TRIM66 (PB) = settings: TRIM66 (PB), GST-tagged; arrays performed twice, n of 4
Text: as §1, §2, §3

MLL5 = settings: MLL5, GST-tagged; arrays performed twice, n of 4
Text: as §1, §2, §3

DIDO1 = settings: DIDO1, GST-tagged; arrays performed twice, n of 4
Text: as §1, §2, §3

ING4 = settings: ING4, GST-tagged; arrays performed twice, n of 4
Text: as §1, §2, §3

PHF13 = settings: PHF13, GST-tagged; arrays performed twice, n of 4
Text: as §1, §2, §3

KDM5A (1) = settings: KDM5A (1), GST-tagged; arrays performed twice, n of 4
Text: as §1, §2, §3

ING1 = settings: ING1, GST-tagged; arrays performed twice, n of 4
Text: as §1, §2, §3

CHD4 (PPCC) = settings: CHD4 (PPCC), GST-tagged; arrays performed twice, n of 4
Text: as §1, §2, §3

ING5 = settings: ING5, GST-tagged; arrays performed twice, n of 4
Text: as §1, §2, §3

RAG2 = settings: RAG2, GST-tagged; arrays performed twice, n of 4
Text: as §1, §2, §3

KDM4C (TTP) = settings: KDM4C (TTP), GST-tagged; arrays performed twice, n of 4
Text: as §1, §2, §3

TAF3 = settings: TAF3, GST-tagged; arrays performed twice, n of 4
Text: as §1, §2, §3

CHD5 (PPCC) = settings: CHD5 (PPCC), GST-tagged; arrays performed twice, n of 4
Text: as §1, §2, §3

KDM5A (3) = settings: KDM5A (3), GST-tagged; arrays performed twice, n of 4
Text: as §1, §2, §3

KDM5B (3) = settings: KDM5B (3), GST-tagged; arrays performed twice, n of 4
Text: as §1, §2, §3

BPTF (PB) = settings: BPTF (PB), GST-tagged; arrays performed twice, n of 4
Text: as §1, §2, §3

MORC3 (CW) = settings: MORC3 (CW), GST-tagged; arrays performed twice, n of 4
Text: as §1, §2, §3

KDM7A = settings: KDM7A, GST-tagged; arrays performed twice, n of 4
Text: as §1, §2, §3

ING2 = settings: ING2, GST-tagged; arrays performed twice, n of 4
Text: as §1, §2, §3

KDM5B (1) = settings: KDM5B (1), GST-tagged; arrays performed twice, n of 4
Text: as §1, §2, §3

AIRE (PP) = settings: AIRE (PP), GST-tagged; arrays performed twice, n of 4
Text: as §1, §2, §3

SP140L = settings: SP140L, GST-tagged; arrays performed twice, n of 4
Text: as §1, §2, §3

Array Heatmap value (peptide array binding signal) (CHD5 (PCC)) | Array Heatmap value (peptide array binding signal) (DPF2 (PPC2W2)) | Array Heatmap value (peptide array binding signal) (BAZ2B) | Array Heatmap value (peptide array binding signal) (PHF8) | Array Heatmap value (peptide array binding signal) (PHRF1 (RP)) | Array Heatmap value (peptide array binding signal) (ING3) | Array Heatmap value (peptide array binding signal) (PHF23) | Array Heatmap value (peptide array binding signal) (PHF21A) | Array Heatmap value (peptide array binding signal) (PHF2) | Array Heatmap value (peptide array binding signal) (TRIM66 (PB)) | Array Heatmap value (peptide array binding signal) (MLL5) | Array Heatmap value (peptide array binding signal) (DIDO1) | Array Heatmap value (peptide array binding signal) (ING4) | Array Heatmap value (peptide array binding signal) (PHF13) | Array Heatmap value (peptide array binding signal) (KDM5A (1)) | Array Heatmap value (peptide array binding signal) (ING1) | Array Heatmap value (peptide array binding signal) (CHD4 (PPCC)) | Array Heatmap value (peptide array binding signal) (ING5) | Array Heatmap value (peptide array binding signal) (RAG2) | Array Heatmap value (peptide array binding signal) (KDM4C (TTP)) | Substance | further results
0.8457 | 0.758 | 0.5108 | 0.3894 | 0.5154 | 0.5376 | 0.5991 | 0.4866 | 0.5212 | 0.6131 | 0.5765 | 0.7538 | 0.4949 | 0.6406 | 0.5224 | 0.5672 | 0.5877 | 0.4136 | 0.2825 | 0.5547 | H2AS1p + R3me2a + K5ac: H2A 1-17 ([pS]G[Arg(Me2a)]GK(Ac)QGGKARAKAKTR; UniProt P0C0S8 2-18, looked up, fragment) | Array Heatmap value (peptide array binding signal) (TAF3): 0.2891; Array Heatmap value (peptide array binding signal) (CHD5 (PPCC)): 0.6207; Array Heatmap value (peptide array binding signal) (KDM5A (3)): 0.5245; Array Heatmap value (peptide array binding signal) (KDM5B (3)): 0.5099; Array Heatmap value (peptide array binding signal) (BPTF (PB)): 0.3885; Array Heatmap value (peptide array binding signal) (MORC3 (CW)): 0.4152; Array Heatmap value (peptide array binding signal) (KDM7A): 0.4163; Array Heatmap value (peptide array binding signal) (ING2): 0.6108; Array Heatmap value (peptide array binding signal) (KDM5B (1)): 0.7084; Array Heatmap value (peptide array binding signal) (AIRE (PP)): 0.4865; Array Heatmap value (peptide array binding signal) (SP140L): 0.3795
0.733 | 0.6502 | 0.4423 | 0.3348 | 0.3943 | 0.4477 | 0.5369 | 0.4468 | 0.5225 | 0.5363 | 0.533 | 0.7308 | 0.4334 | 0.5577 | 0.4587 | 0.536 | 0.5518 | 0.3322 | 0.2674 | 0.4463 | H2AX (132-142): H2AX 132-142 (GKKATQASQEY; UniProt P16104 133-143, looked up, fragment) | Array Heatmap value (peptide array binding signal) (TAF3): 0.2878; Array Heatmap value (peptide array binding signal) (CHD5 (PPCC)): 0.5152; Array Heatmap value (peptide array binding signal) (KDM5A (3)): 0.478; Array Heatmap value (peptide array binding signal) (KDM5B (3)): 0.4637; Array Heatmap value (peptide array binding signal) (BPTF (PB)): 0.3256; Array Heatmap value (peptide array binding signal) (MORC3 (CW)): 0.4162; Array Heatmap value (peptide array binding signal) (KDM7A): 0.3262; Array Heatmap value (peptide array binding signal) (ING2): 0.621; Array Heatmap value (peptide array binding signal) (KDM5B (1)): 0.6162; Array Heatmap value (peptide array binding signal) (AIRE (PP)): 0.4547; Array Heatmap value (peptide array binding signal) (SP140L): 0.3692
